Data: article PMC6814738, “Bacterial MgrB peptide activates chemoreceptor Fpr3 in mouse accessory olfactory system and drives avoidance behaviour” (Nature Communications, 2019)
Entries after “also recorded” stand apart in the source; their conditions may differ. Peptide text beside a SMILES is read from it. * marks the point of attachment. For = O=C*

Legend:
Fpr2 = details: cited from earlier work
Protocol: (§1) We estimate the fraction of knobs responding to f-MKKFRW as ~0.15%, which is similar to the fraction of cells in the VNE that express Fpr3[30]. Strikingly, the sensitivity and sequence-selectivity profile of these responses was nearly identical to the results that we obtained for heterologously expressed Fpr3. The detection threshold of native VSNs for f-MKKFRW was ≤0.1 µM (Fig. 4f), virtually the same as for Fpr3-expres ...

Fpr1 = details: cited from earlier work
Protocol: as §1

mouse Fpr3 (Fpr-rs1) = molecular target: T1, mouse Fpr3 (Fpr-rs1) (Mus musculus, UniProt O08790); experiment: Heterologous expression / high-throughput Ca2+ imaging agonist screen and sequence selectivity of Fpr3 (Fig. 1a, 2c-e, 2g, 2i); assay type: cell-based; details: for Ca2+ response, mean: mean of n = 3 experiments in triplicate (n = 5 for f-MKKFRW), Fpr3 + Gα16 HEK293T, Fluo-4/AM, buffer C1 pH 7.2, mock 0.059-0.060
T1 construct: expressed in transfected cells; host or cells: HEK293T (DSMZ # ACC-635), transient transfection with jetPEI
T1 sequence (O08790 1-351): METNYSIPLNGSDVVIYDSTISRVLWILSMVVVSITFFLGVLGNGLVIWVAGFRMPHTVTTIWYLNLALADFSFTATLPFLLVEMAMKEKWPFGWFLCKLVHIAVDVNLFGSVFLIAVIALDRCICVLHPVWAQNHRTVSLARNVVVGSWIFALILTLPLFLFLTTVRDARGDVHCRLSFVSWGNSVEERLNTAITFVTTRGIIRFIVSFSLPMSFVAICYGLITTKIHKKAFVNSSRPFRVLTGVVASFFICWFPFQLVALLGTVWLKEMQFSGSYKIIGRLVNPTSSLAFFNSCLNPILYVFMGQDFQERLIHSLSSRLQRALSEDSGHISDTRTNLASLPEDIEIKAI
Summary of the method: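 HEK293T cells were cotransfected with C57BL/6J mouse Fpr3 and Gα16, and Ca2+ responses to synthetic peptides (6–21 residues, >95% purity) were recorded 48 h later by FLIPR with Fluo-4/AM. Peptide stocks of 0.2–1 mM were prepared in buffer C1 (HEPES, pH 7.2).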

mouse Fpr3 = details: cited from earlier work
Protocol: We estimate the fraction of knobs responding to f-MKKFRW as ~0.15%, which is similar to the fraction of cells in the VNE that express Fpr3[30]. Strikingly, the sensitivity and sequence-selectivity profile of these responses was nearly identical to the results that we obtained for heterologously expressed Fpr3. The detection threshold of native VSNs for f-MKKFRW was ≤0.1 µM (Fig. 4f), virtually the same as for Fpr3-expres ... || Given the importance of the olfactory system in a variety of behavioural avoidance and defence mechanisms[14],[62],[63], we reasoned that in vivo detection of MgrB peptide may evoke an avoidance reaction in mice. We devised a behavioural assay[14],[60] in order to determine whether direct nasal contact with MgrB peptide evokes unconditioned, innate avoidance (Fig. 8a and Methods). […] (Fig ... || We used custom-made peptides with a length of 6–21 amino acids to screen for agonists. Sequences of fMet peptides were designed according to motifs present at the N-termini of 15,125 specific bacterial proteins as annotated in UniProt. Peptides were chemically synthesised, purified, and verified by mass spectroscopy (MALDI-TOF) by commercial suppliers. Purity of all peptides was >95%. Source, sequence and purity of each peptide are listed in Supplementary Data 1. Lyophilised peptides were routinely dissolved in the Ca^2+ imaging assay buffer C1 (130 mM NaCl, 10 mM HEPES, 5 mM KCl, 2 mM CaCl2, ...

Molecule	activation of Fpr2, in words (Fpr2)	activation of Fpr1, in words (Fpr1)	Ca2+ response, mean (mouse Fpr3 (Fpr-rs1); 3 µM, FLIPR)	Ca2+ response, mean (mouse Fpr3 (Fpr-rs1); 30 µM, FLIPR)	activation of heterologously expressed Fpr3, in words (mouse Fpr3)	activation of Fpr3 in agonist screen, in words (mouse Fpr3 (Fpr-rs1); 3 µM, Fpr3-transfected HEK293T, Gα16, Fluo-4/AM, FLIPR, Fig. 1a)	Fpr3 activation by sequence variants, in words (mouse Fpr3 (Fpr-rs1); 30 µM (3 or 30 µM for elongated peptides), Fpr3-transfected HEK293T, Fig. 2c-e, i)	specific Ca2+ response of Fpr3 in agonist screen, in words (mouse Fpr3 (Fpr-rs1); 3 or 30 µM, Fpr3-transfected HEK293T, panel of 41 peptides, Fig. 1a)
f-MGFFIS [bacterial signal peptide fragment]	activates Fpr1 and Fpr2	activates Fpr1	0.055 ∆F/F	0.048 ∆F/F	not Fpr3; also recorded: failed to activate heterologously expressed Fpr3			
CSCC[C@H](NC=O)C(=O)N[C@@H](CCCCN)C(=O)N[C@@H](CCCCN)C(=O)N[C@@H](Cc1ccccc1)C(=O)N[C@@H](CCCNC(=N)N)C(=O)N[C@@H](Cc1c[nH]c2ccccc12)C(=O)O [f-MKKFRW] (For-MKKFRW-OH)			0.110 ∆F/F	0.423 ∆F/F		activated Fpr3-expressing HEK293T	Fpr3 recognises the core agonist f-MKKFRW	caused Fpr3 activation
